PubChem BioAssay (NCI)
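Values below derive from 48-hour exposures of cells grown in 96-well plates, with endpoints linearly interpolated between the two concentrations bracketing the appropriate inhibition level. Abbreviation: GI50, concentration required for 50% inhibition of growth. Definition used: TGI = concentration required for complete inhibition of growth.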

Assays:
Test in all cases: DTP human tumour cell line panel, 48 h
HT29 colon = test system: HT29 colon
SF-295 CNS = test system: SF-295 CNS
M14 melanoma = test system: M14 melanoma
LOX IMVI melanoma = test system: LOX IMVI melanoma
SF-268 CNS = test system: SF-268 CNS
NCI-H460 lung = test system: NCI-H460 lung
NCI-H226 lung = test system: NCI-H226 lung
HCC-2998 colon = test system: HCC-2998 colon
SR leukemia = test system: SR leukemia
HCT-15 colon = test system: HCT-15 colon

Compound | GI50 (HT29 colon) [µM] | TGI (HT29 colon) [µM] | GI50 (SF-295 CNS) [µM] | TGI (SF-295 CNS) [µM] | GI50 (M14 melanoma) [µM] | TGI (M14 melanoma) [µM] | GI50 (LOX IMVI melanoma) [µM] | TGI (LOX IMVI melanoma) [µM] | GI50 (SF-268 CNS) [µM] | TGI (SF-268 CNS) [µM] | GI50 (NCI-H460 lung) [µM] | TGI (NCI-H460 lung) [µM] | GI50 (NCI-H226 lung) [µM] | TGI (NCI-H226 lung) [µM] | GI50 (HCC-2998 colon) [µM] | TGI (HCC-2998 colon) [µM] | GI50 (SR leukemia) [µM] | TGI (SR leukemia) [µM] | GI50 (HCT-15 colon) [µM] | TGI (HCT-15 colon) [µM]
Fc1ccc(Nc2nc(NCCNc3ccnc4cc(Cl)ccc34)nc(N3CCOCC3)n2)cc1 | 2.27 | 5.77 | 4.19 | 15.3 | 1.94 | 3.66 | 2.95 | 10.1 | 6.85 | 20.5 | 3.44 | 14 | 14.4 | 33.4 | 2 | 3.95 | 2.44 | 7.6 | 2.46 | 6.56
CS(=O)(=O)Nc1cc(-c2ccc3ncnc(Nc4ccc5c(cnn5Cc5ccc(F)cc5)c4)c3c2)cnc1Cl | 1.92 | 12.9 | 2.06 | 9.61 | 2.33 | 17 | 1.18 | 3.27 | 0.819 | 4.51 | 2.8 | 13.3 | 2.18 | 11 | 1.41 | 3.17 | 1.71 | 6.73 | 3.21 | 21.3
CC(=O)c1cccc(NCn2nnc3ccccc32)c1 | – | > 100 | – | > 100 | – | > 100 | – | > 100 | – | > 100 | – | > 100 | – | > 100 | – | > 100 | – | > 100 | – | > 100
C=C(C)CCC(C)N1CCC(N2CCC(C(=O)NCCc3ccccc3)CC2)CC1 (stereo not given) | 22.1 | > 100 | 11.9 | 26.1 | 15.4 | 31.1 | 15.8 | 35.5 | 98 | > 100 | 37.8 | > 100 | 96.6 | > 100 | 37.9 | > 100 | 12.3 | 82.1 | 16.7 | 57.6
N/N=C(\Cc1ccccc1)NN=C(N)N | – | > 100 | – | > 100 | – | > 100 | – | > 100 | – | > 100 | – | > 100 | – | > 100 | – | > 100 | – | > 100 | – | > 100
NCc1ccc(-n2c(-c3nonc3N)nc3cnccc32)cc1 | 7.58 | > 25 | 16 | > 25 | > 25 | > 25 | 17.1 | > 25 | 5.26 | > 25 | 13.7 | > 25 | 0.912 | > 25 | 23.8 | > 25 | 2.67 | > 25 | 6.85 | > 25
CC(C)OC(=O)c1ccc2[nH]c(O)c(C(=Nc3ccc(N(C)C(=O)CN4CCN(C)CC4)cc3)c3ccccc3)c2c1 | 0.28 | 3.83 | 1.19 | 2.47 | 0.451 | 1.9 | 0.298 | 1.43 | 0.387 | 2 | 0.448 | 1.89 | 1.1 | 2.83 | 0.792 | 2.21 | 0.0443 | 0.721 | 0.372 | 1.52
COc1cnc2c(c1)C(=O)c1c-2n(CCCN2CCCC2)c(=O)c2cc(Cl)ccc12 | 0.161 | 7.94 | 0.0278 | 6.8 | 0.872 | 11.8 | 0.0423 | 5.96 | 0.17 | 9.38 | 0.0217 | 5.51 | 3.27 | 14.4 | 5.07 | 12.1 | 0.0499 | 7.9 | 1.73 | 10.3
CN(C)c1ccc(N=Nc2c([O-])ccc3ccccc23)cc1.[C-]#[O+].[C-]#[O+].[Ir] | 28.5 | > 73.1 | > 100 | > 100 | 21.9 | 46.6 | 18.6 | 40.5 | 26.9 | 76.6 | > 100 | > 100 | > 53.9 | > 100 | 38.5 | > 79.9 | 17.9 | 57.7 | 18.5 | 34.9
Fc1ccc(Nc2nccc(-c3c(-c4ccc(C(F)(F)F)cc4)nn4ncccc34)n2)cc1F | > 25 | > 25 | > 18.9 | > 25 | > 25 | > 25 | > 25 | > 25 | > 25 | > 25 | > 25 | > 25 | > 25 | > 25 | > 25 | > 25 | > 25 | > 25 | > 25 | > 25
O=C(Cc1ccccc1)N/N=C(\C1=Nc2ccc([N+](=O)[O-])cc2NC1O)C(O)c1ccc([N+](=O)[O-])cc1 (stereo not given) | – | > 100 | – | > 100 | – | > 100 | – | > 100 | – | > 100 | – | > 100 | – | > 100 | – | > 100 | – | > 100 | – | > 100
Clc1ccc(CN2COc3c(cc(Cl)c4cccnc34)C2)cc1 | – | 24.7 | – | 7.1 | – | 3.82 | – | 2.97 | – | 12.7 | – | 9.19 | – | 8.67 | – | 12 | – | 6.88 | – | 13.5
CCOC(=O)c1c(C)n(Cc2ccc(Cl)cc2Cl)c2c1cc1oc(=O)c(=O)n3c(Cc4ccccc4)nc2c13 | 4.65 | 17.4 | 2.32 | 10.9 | 13 | 36.7 | 1.83 | 3.38 | 2.31 | 5.84 | 2.68 | 7.06 | 10.7 | 25 | 2.25 | 5.04 | 0.378 | 2.38 | 3.92 | 14.8
